The target in this assay is T1, GPR103 L14N-termA (Homo sapiens, UniProt Q96P65, L14A).
T1 construct: we used human full-length QRFPR-encoding plasmids; expressed in transfected cells; host or cells: HEK293 cells, pCAGGS vector
T1 sequence (Q96P65 1-431 L14A): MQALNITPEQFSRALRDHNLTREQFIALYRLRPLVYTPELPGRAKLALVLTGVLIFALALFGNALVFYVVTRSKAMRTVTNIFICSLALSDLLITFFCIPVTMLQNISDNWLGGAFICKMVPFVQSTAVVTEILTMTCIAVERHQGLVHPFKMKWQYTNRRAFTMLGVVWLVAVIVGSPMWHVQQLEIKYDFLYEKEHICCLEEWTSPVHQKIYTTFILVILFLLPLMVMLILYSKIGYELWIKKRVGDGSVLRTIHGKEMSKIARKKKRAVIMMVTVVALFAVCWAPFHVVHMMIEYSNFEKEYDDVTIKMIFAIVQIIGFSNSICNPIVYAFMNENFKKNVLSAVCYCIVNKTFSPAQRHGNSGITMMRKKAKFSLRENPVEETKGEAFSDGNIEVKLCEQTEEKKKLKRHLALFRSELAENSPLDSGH
Description: TGFα shedding assay; Exp. level WT (1:5). It counts as cell-based. The procedure: For the TGFα shedding assay and the flow cytometry analysis, we used human full-length QRFPR-encoding plasmids. Specifically, GPR103 was N-terminally modified with an HA signal sequence followed by a FLAG epitope and then a flexible linker ([…]; the FLAG epitope is underlined) and inserted into the pCAGGS vector. Plasmid encoding GPR103 mutants were generated using Quickchange Site-Directed Mutagensis kit (Agilent).
The TGFα shedding assay was performed as described previously with minor modifications. Plasmid transfection was performed in a 6-well plate with a mixture of 500 ng (per well in a 6-well plate) AP-TGFα-encoding plasmid and 200 ng GPR103-encoding plasmid. After 1-day culture, the transfected cells were harvested by trypsinization, pelleted by centrifugation at 190 × g for 5 min, and washed once with 5 mM HEPES (pH 7.4)-containing Hank’s Balanced Salt Solution (HBSS). After centrifugation, the cells were resuspended in 8 mL of the HEPES-containing HBSS. The cell suspension was seeded in a 96-well culture plate (cell plate) at a volume of 90 μL (per well hereafter) and incubated in a 37 °C incubator with 5% CO2 for 30 min. […] After spinning the cell plates at 190 × g for 2 min, 80 μL of conditioned media was transferred to an empty 96-well plate (conditioned media (CM) plate). Then, 80 μL of AP reaction solution (10 mM p-nitrophenylphosphate (p-NPP), 120 mM Tris-HCl (pH 9.5), 40 mM NaCl, and 10 mM MgCl2) was dispensed into the cell plates and the CM plates. Absorbance at 405 nm of the plates was measured using a microplate reader (SpectraMax 340 PC384, Molecular Devices) before and after 1-h incubation at room temperature. Ligand-induced AP-TGFα release was calculated by subtracting spontaneous AP-TGFα release signal from ligand-induced AP-TGFα release signal. The AP-TGFα release signals were fitted to a four-parameter sigmoidal concentration–response curve, using the Prism 10 software (GraphPad Prism). For each replicate experiment, the pEC50 parameter (negative logarithmic values of EC50 values) of the individual GPR103 mutants were normalized to that of the wild-type GPR103 performed in parallel, and resulting ∆pEC50 values were used to denote ligand response activity of the mutants. […]
Exp. le vel: WT (1:5 0)Exp. le vel: WT (1:5 0)Exp. le vel: WT (1:5 0)Exp. le vel: WT (1:2 0)Exp. le vel: WT (1:2 0)Exp. le vel: WT (1:1 0) […]
L1 4N - t e r mA F2 5N - t e r mA I 2 6N - t e r mA Y 2 9N - t e r mA C 9 82 .5 7A T10 22 .6 1A Exp . l eve l: WT (1 :5)Exp . l evel : >WT (1 :1)Exp. le vel: WT (1:2 0)Exp. le vel: WT (1:2 0)Exp. le vel: WT (1:5 0)Exp . l eve l: WT (1 :1) […]
Exp. le vel: WT (1:1 0)Exp. le vel: WT (1:2 0) C 1 1 83 .2 5AExp. le vel: WT (1:5 0)Exp. le vel: WT (1:5 0)Exp. le vel: WT (1:2 0)Exp . l eve l: WT (1 :5) […]
Exp. le vel: WT (1:5 0)Exp. le vel: WT (1:1 0)Exp. le vel: WT (1:5 0) E203ECL2AExp . l evel : >WT (1 :1)Exp. le vel: WT (1:5 0)Exp. le vel: WT (1:5 0) […]
Exp . l eve l: WT (1 :1) F28Exp. le vel: WT (1:5 0) C 2 8 56 .4 7AExp. le vel: WT (1:2 0) WExp. le vel: WT (1:2 0) F28Exp. le vel: WT (1:5 0)Exp . l evel : >WT (1 :1) […]
Exp. le vel: WT (1:5 0)Exp. le vel: WT (1:5 0) C 3 2 77 .4 8AExp . l eve l: WT (1 :5)Exp . l evel : >WT (1 :1)Exp . l evel : >WT (1 :1) […]
Suppl eme nt ary Figure 1 | Mutational analysis of GPR103. […]
mutants. Data are presented as mean values ± SEM, normally n=3-5; dots), each performed in triplicate. b-d Cell-surface expression (b) and QRFP26-in-duced activation of GPR103 (c, d) were analyzed by the flow cytometry and the TGFα shedding assay, respectively. From the concentration–response curves (a), Emax (c) and ΔpEC50 (d) values relative to the wild type were calculated. Colors in the mutant bars indicate an expression level matching to that of titrated wild type. Statistical analyses were performed using the ordinary one-way ANOVA followed by Dunnett tests with the expression-matched […]

Where two headings read alike, the source gives them in different places. No end group written: not given here.

For the substance TSGPLGNLAEELNGYSRKKGGFSFRF-NH2 [QRFP26], the Emax reads like this: (Exp. #1) 105.09 % WT; (Exp. #2) 97.15 % WT; (Exp. #3) 104.38 % WT; (mean, read-out: Emax) 102%; (n = 3, read-out: Emax) 106 ± 2.1%. Under “n = 3”, this substance gave an EC50 of 7.59 nM.

The EC50 is the concentration at which the effect is half-maximal. A high value points to a less potent agent.

These data come from publication PMC11187126, “Structure and dynamics of the pyroglutamylated RF-amide peptide QRFP receptor GPR103” (Nature Communications, 2024).
